Measured values from US20250235510A1, “COMBINATION THERAPY USING GLUCOSE-DEPENDENT INSULINOTROPIC POLYPEPTIDE RECEPTOR ANTAGONIST COMPOUNDS AND GLP-1 RECEPTOR AGONIST PEPTIDES” (Pfizer Inc., priority 2024, published 2025).
pIC50: −log10 of the molar value.

Target: T1, human Glucose-dependent Insulinotropic Polypeptide Receptor (hGIPR) (Homo sapiens, UniProt P48546)
T1 sequence (P48546 22-466): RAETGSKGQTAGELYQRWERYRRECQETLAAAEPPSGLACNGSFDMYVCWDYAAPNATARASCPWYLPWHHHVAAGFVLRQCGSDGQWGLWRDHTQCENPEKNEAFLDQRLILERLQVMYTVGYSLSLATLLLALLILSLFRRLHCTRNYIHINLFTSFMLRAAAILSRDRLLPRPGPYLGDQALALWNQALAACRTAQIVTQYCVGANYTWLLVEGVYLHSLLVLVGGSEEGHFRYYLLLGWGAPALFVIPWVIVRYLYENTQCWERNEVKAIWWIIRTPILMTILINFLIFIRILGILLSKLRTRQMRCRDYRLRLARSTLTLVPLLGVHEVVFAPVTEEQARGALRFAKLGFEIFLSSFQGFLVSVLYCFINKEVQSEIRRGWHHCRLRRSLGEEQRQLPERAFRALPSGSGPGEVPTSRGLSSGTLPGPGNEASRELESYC
Assay: Functional in vitro GIPR antagonist potency assay (intracellular cAMP, HTRF) in CHO-K1 cells stably expressing hGIPR
Format: cell-based
Conditions: 2 h compound incubation, then hGIP at estimated EC80 for 30 min
Experimental: The functional in vitro antagonist potency for test compounds was determined by monitoring intracellular cyclic adenosine monophosphate (cAMP) levels in Chinese hamster ovary (CHO)-K1 cells stably expressing the human Glucose-dependent Insulinotropic Polypeptide Receptor (hGIPR). Following agonist activation, hGIPR associates with the G-protein complex causing the Gas subunit to exchange bound guanosine diphosphate (GDP) for guanosine triphosphate (GTP), followed by dissociation of the Gas-GTP complex. The activated Gas subunit can couple to downstream effectors to regulate the levels of second messengers or cAMP within the cell. Thereby, determination of intracellular cAMP levels allows for pharmacological characterization. Intracellular cAMP levels are quantitated using a homogenous assay utilizing the Homogeneous Time Resolved Fluorescence (HTRF) technology from Perkin Elmer. […] The two entities compete for binding to a monoclonal anti-cAMP antibody labeled with cryptate. […]
([…]: 5% CO2), with a micro-clime lid. […] ([…]: 5% CO2), after which intracellular cAMP levels were quantified and samples measured as described previously. […]
Data were analyzed using the ratio of fluorescence intensity at 620 and 665 nm for each well, extrapolated from the cAMP standard curve to express data as nanomolar (nM) cAMP for each well. […]

SMILES: CC(C)c1ccc(NC(=O)N2CCC[C@H]2C(=O)Nc2ccc3cc(C(=O)O)ccc3c2)cc1 [Compound 41A, 6-[(1-{[4-(propan-2-yl)phenyl]carbamoyl}prolyl)amino] naphthalene-2-carboxylic acid]
- pIC50: 6.80

SMILES: CC(C)c1ccc(NC(=O)N2CCC[C@H]2C(=O)Nc2ccc(-c3ccc(C(=O)O)cc3)cc2)cc1 [Compound 44A, 4′-[(1-{[4-(propan-2-yl)phenyl]carbamoyl}prolyl)amino][1,1′-biphenyl]-4-carboxylic acid]
- pIC50: 8.17
